Test system: spontaneously hypertensive rats (SHR)
Assay: Test for inhibiting hypertension in rats (systolic BP at the tail pulse), SHR
Format: in vivo
Conditions: for changes in blood pressure (inhibition of hypertension): male SHR, oral once a day for 8 weeks, quercetin 0.3-2.7 mg/day/kg and/or arginine 0.03-0.15 mg/day/kg, FIG. 2
Procedure: Quercetin was extracted by adding 100 g of washed onion skins to 10 liters of water heated to 80° C., and impurities were removed to obtain quercetin-containing solution. The amount of quercetin contained in the quercetin-containing solution was 0.1 mg/ml. The quercetin-containing solution was appropriately concentrated with an evaporator.
11 week old male spontaneously hypertensive rats (SHR) were divided into A to I groups (9 groups consisting of 5 rats per group) and 11 week old male normotensive Wistar Kyoto (WKY) rats were divided into J to L groups (3 groups consisting of 5 rats per group) so that averages of weight and blood pressure (BP) of the respective groups were nearly equal. They were pre-bred in each breeding cage at 22.0±1.0° C. temperature, 60±10% of humidity and 12 hour light-dark cycles for a week while taking feeds and water ad libitum.
After the pre-breeding period, they were bred with the same conditions for 8 weeks. The quercetin-containing solution obtained in the above-mentioned preparation method and commercially-available arginine powder (produced by Ajinomoto Co., Inc.) were blended together so that amounts of quercetin and arginine would be the respective amounts in Table 7, below. Each mixture was orally administered to the rats in each group once a day. The rats took feed and water ad libitum during the test.
The blood pressure (BP) of rats was measured once a week. After each rat was warmed and climatized itself in a warmer at 38° C. for a few minutes, a systolic BP at the tail pulse was measured with an automatic sphygmomanometer (BP-98A; Softron Co., Ltd.) In each rat, the BP was measured for three times per one measurement and an average of the three measured values was recorded.

SMILES | changes in blood pressure (inhibition of hypertension) | inhibition of hypertension with purified quercetin instead of quercetin-containing solution (same test, purified quercetin used instead of the quercetin-containing solution)
N=C(N)NCCC[C@H](N)C(=O)O [arginine] | hypertensions were inhibited | –
O=c1c(O)c(-c2ccc(O)c(O)c2)oc2cc(O)cc(O)c12 [purified quercetin, quercetin] | – | a similar result can be achieved
O=c1c(O)c(-c2ccc(O)c(O)c2)oc2cc(O)cc(O)c12 [quercetin] | hypertensions were inhibited | –
